Read-outs that look alike come from different tables or passages of the source.

The subject of one data set is patients. The conditions noted are these: within 24 hours or 48 hours of initial symptom resolution; cited from earlier work.
The conditions of data set [1]: female rats, cited from earlier work; for Cmax/dose: normalization using sumatriptan succinate dosage.
The conditions of data set [2]: human, cited from earlier work.
A short description of data set [3]: Pharmacokinetic study of liposomal sumatriptan in rats after single subcutaneous administration. The method, then: Jugular vein cannulated (JVC) female Sprague-Dawley rats (7-9 weeks) were used for a pharmacokinetic (PK) study. The rats were housed in a holding room which operates on a 12-hour light/12-hour dark circadian cycle with free access (ad libitum) to water and food.
Blood samples were collected at 2, 4, 8, 24, 48 and 72 hours post-injection. Plasma samples were obtained by centrifugation and then dimethyl sulfoxide was added to the plasma samples at a final concentration of 5% (v/v) for storing the samples at −80° C. until analysis. One-hundred microliters of each sample were subject to separation of sumatriptan by a Strata C18-E tube to obtain the sumatriptan fraction and sumatriptan concentration was determined employing LC-MS/MS methods.
The unformulated sumatriptan injection was prepared by dissolving the sumatriptan tartrate in ultrapure water at 2 mg/mL. The in vivo PK profiles of the rats (n=3) administrated with unformulated sumatriptan following subcutaneous injection at the dosage of 3 mg/kg of sumatriptan tartrate were compared to the PK profiles of the rats administered 10 mg/kg of sumatriptan from the liposomal sumatriptan formulation. Blood samples were collected at 15 mins, 0.5, 1, 2, 4, 6 and 8 hours post-injection. Plasma samples were obtained by centrifugation and were kept frozen at −80° C. until analysis.
FIG. 1 depicts the mean sumatriptan concentration versus time curve over 72 hours post-injection. Table 2 provides a summary of the PK parameters which were obtained using a noncompartmental model within the PKSolver program.

The mark [4] stands for this setting: unformulated 3 mg/kg, liposomal 10 mg/kg.

On to `CNS(=O)(=O)Cc1ccc2[nH]cc(CCN(C)C)c2c1` [sumatriptan], for which the migraine recurrence rate entry with patients is given as “about 40%”. Further, the t1/2 in data set [1] (intranasal administration) was 3.6 h; in data set [1] (intravenous administration) it was 1.1 h. For the same molecule, the results for the Cmax/dose in data set [1] (intranasal) and in data set [1] (intravenous) were 25 ng/mL and 508.6 ng/mL, respectively. Also, the “half-life (t1/2)” value in data set [2] (6 mg subcutaneous injection) is 2 h; in data set [2] (20 mg intranasal administration), 1.8 h; in data set [2] (100 mg oral tablet), 2 h; in data set [2] (irrespective of route of administration), “approximately 2 hours”. Further, the “time to reach maximum plasma concentration” value in data set [2] (subcutaneous injection) is “approximately 10 minutes”.

In data set [3] (dose-normalized), “sumatriptan tartrate [Unformulated Sumatriptan]” had an AUC0-t/dose of 226.9 and a Cmax/dose of 138. In data set [3] (setting [4]), the AUC0-inf was found to be 687.4 ng·h/mL, the AUC0-t came to 680.6 ng·h/mL, the Cmax was 414 ng/mL and the t1/2 came to 1.1 h.

What is called Cmax is the maximum level reached in the sampled fluid or tissue.

The values are drawn from US11406628B2, “Sustained-release triptan compositions and method of use the same through subdermal route or the like” (Taiwan Liposome Co., Ltd, priority 2017, dated 2022).
